# Reference: publication PMC11520371 (Journal of Pharmaceutical Health Care and Sciences, 2024)
# What was measured:
# [1] = Plasma concentrations measured by UPLC-MSMS in the case patient; type: in vivo, human
# Procedure: The patient had pancreatic cancer and was admitted to Hirosaki University hospital to undergo a pancreatoduodenectomy. Written informed consent was obtained from this patient for the measurement of each biomarker and polymorphisms of pharmacokinetics-related genes. […] This regimen involved taking CAM 400 mg twice per day after breakfast and supper, RFP 450 mg once per day after breakfast, and ethambutol 750 mg once per day.
# [2] = cited from earlier work
# albumin = details: cited from earlier work
# [3] = tested on: P-glycoprotein (P-gp; gene code ABCB1); details: cited from earlier work
# [4] = tested on: organic anion transporting polypeptide 1B1 (OATP1B1; SLCO1B1); details: cited from earlier work
Plasma concentration of valsartan ([1]; POD6) [µg/mL],Plasma concentration of valsartan ([1]; POD9) [µg/mL],Plasma concentration of valsartan ([1]; POD11) [µg/mL],Plasma concentration of valsartan ([1]; POD131) [µg/mL],"concentration at 10 postoperative day ([1]; male, human, plasma, POD10, read-out: Plasma concentration of valsartan) [µg/mL]","concentration at 14 postoperative day ([1]; male, human, plasma, POD14, read-out: Plasma concentration of valsartan) [µg/mL]","concentration at 26 h ([1]; male, human, in vivo, 30 mg/day, POD131, 26 h after last edoxaban tablet (C0h), edoxaban 30 mg/day, outpatient follow-up) [µg/mL]","concentration at 2 h ([1]; male, human, in vivo, 30 mg/day, POD233, 2 h after last edoxaban tablet (C2h), edoxaban 30 mg/day, outpatient follow-up) [µg/mL]","concentration at 24 h ([1]; male, human, in vivo, 60 mg once per day, POD9, 24 h after last edoxaban tablet (trough, C0h), edoxaban 60 mg once per day with RFP and CAM, onset of AKI) [µg/mL]","concentration at 8 h ([1]; male, human, in vivo, 60 mg once per day, POD10, 8 h after last edoxaban tablet (C8h), edoxaban 60 mg once per day with RFP and CAM, AKI) [µg/mL]","concentration at 24 h ([1]; male, human, in vivo, 60 mg once per day, POD11, 24 h after last edoxaban tablet (trough, C0h), AKI) [µg/mL]","concentration at 96 h ([1]; male, human, in vivo, 60 mg once per day, POD14, 96 h after last edoxaban tablet) [µg/mL]",SMILES,unchanged valsartan excreted in the urine [2] [%],albumin binding rate (albumin) [%],absorbed drug excreted in its unchanged form through the kidneys [2],bioavailability [2],substrate of P-glycoprotein [3],substrate of OATP1B1 [4]
2.4,5.7,10.4,1.0,9.4,1.4,,,,,,,CCCCC(=O)N(Cc1ccc(-c2ccccc2-c2nnn[nH]2)cc1)[C@H](C(=O)O)C(C)C [valsartan],13,,,,,
,,,,,,< 0.005,0.413,0.131,0.796,0.116,< 0.005,CN1CCc2nc(C(=O)N[C@@H]3C[C@@H](C(=O)N(C)C)CC[C@@H]3NC(=O)C(=O)Nc3ccc(Cl)cn3)sc2C1 [edoxaban],,55,approximately 50%,approximately 62%,substrate,not an OATP1B1 substrate
